# Test results as given in ChEMBL document CHEMBL5321200, “Discovery of the GSH responsive "Y-PROTACs" targeting ALK and CDK4/6 as a potential treatment for cancer” (Eur J Med Chem, 2023).
# Calls of active or inactive are those of the source. No cut-off for these calls is given here.
# Legend:
# NCI-H3122 [1] = test: Induction of apoptosis in human NCI-H3122 cells assessed as necrotic cells at 1.25 uM incubated for 48 hrs by Annexin V-FITC/propidium iodide staining based flow cytometric analysis (reference value: 3.53%); format: functional
# NCI-H3122 [2] = test: Cell cycle arrest in human NCI-H3122 cells assessed as accumulation of cells at G2/M phase at 0.625 uM incubated for 24 hrs by propidium iodide staining based flow cytometric analysis (reference value: 18.55%); format: functional
# [3] = Cytotoxicity against human L02 cells assessed as inhibition of cell growth incubated for 3 to 5 days by MTT assay; format: toxicity, cell-based
# NCI-H3122 [4] = test: Cell cycle arrest in human NCI-H3122 cells assessed as accumulation of cells at G2/M phase at 0.312 uM incubated for 24 hrs by propidium iodide staining based flow cytometric analysis (reference value: 18.55%); format: functional
# NCI-H3122 [5] = test: Induction of apoptosis in human NCI-H3122 cells assessed as early apoptotic cells at 2.5 uM incubated for 48 hrs by Annexin V-FITC/propidium iodide staining based flow cytometric analysis (reference value: 0.50%); format: functional
# NCI-H3122 [6] = test: Antiproliferative activity against human NCI-H3122 cells assessed as inhibition of cell growth incubated for 3 to 5 days by MTT assay; format: functional, cell-based
# NCI-H3122 [7] = test: Cell cycle arrest in human NCI-H3122 cells assessed as accumulation of cells at G2/M phase at 2.5 uM incubated for 24 hrs by propidium iodide staining based flow cytometric analysis (reference value: 18.55%); format: functional
# NCI-H3122 [8] = test: Induction of apoptosis in human NCI-H3122 cells assessed as necrotic cells at 0.625 uM incubated for 48 hrs by Annexin V-FITC/propidium iodide staining based flow cytometric analysis (reference value: 3.53%); format: functional
# NCI-H3122 [9] = test: Induction of apoptosis in human NCI-H3122 cells assessed as early apoptotic cells at 1.25 uM incubated for 48 hrs by Annexin V-FITC/propidium iodide staining based flow cytometric analysis (reference value: 0.50%); format: functional
# NCI-H1299 [10] = test: Antiproliferative activity against human NCI-H1299 cells assessed as inhibition of cell growth incubated for 3 to 5 days by MTT assay; format: functional, cell-based
# NCI-H3122 [11] = test: Cell cycle arrest in human NCI-H3122 cells assessed as accumulation of cells at G0/G1 phase at 0.625 uM incubated for 24 hrs by propidium iodide staining based flow cytometric analysis (reference value: 45.91%); format: functional
# NCI-H3122 [12] = test: Cell cycle arrest in human NCI-H3122 cells assessed as accumulation of cells at G2/M phase at 1.25 uM incubated for 24 hrs by propidium iodide staining based flow cytometric analysis (reference value: 18.55%); format: functional
# NCI-H3122 [13] = test: Induction of apoptosis in human NCI-H3122 cells assessed as late apoptotic cells at 1.25 uM incubated for 48 hrs by Annexin V-FITC/propidium iodide staining based flow cytometric analysis (reference value: 1.73%); format: functional
# NCI-H3122 [14] = test: Antiproliferative activity against human NCI-H3122 cells assessed as inhibition of cell growth pretreated with GSH followed by compound addition and incubated for 3 to 5 days by MTT assay; format: functional, cell-based
# NCI-H3122 [15] = test: Induction of apoptosis in human NCI-H3122 cells assessed as necrotic cells at 0.312 uM incubated for 48 hrs by Annexin V-FITC/propidium iodide staining based flow cytometric analysis (reference value: 3.53%); format: functional
# NCI-H3122 [16] = test: Cell cycle arrest in human NCI-H3122 cells assessed as accumulation of cells at S phase at 2.5 uM incubated for 24 hrs by propidium iodide staining based flow cytometric analysis (reference value: 34.86%); format: functional
# NCI-H3122 [17] = test: Induction of apoptosis in human NCI-H3122 cells assessed as viable cells at 0.625 uM incubated for 48 hrs by Annexin V-FITC/propidium iodide staining based flow cytometric analysis (reference value: 94.19%); format: functional; settings: read-out: Activity
# NCI-H3122 [18] = test: Induction of apoptosis in human NCI-H3122 cells assessed as late apoptotic cells at 2.5 uM incubated for 48 hrs by Annexin V-FITC/propidium iodide staining based flow cytometric analysis (reference value: 1.73%); format: functional
# [19] = Cytotoxicity against human L02 cells assessed as inhibition of cell growth pretreated with GSH followed by compound addition and incubated for 3 to 5 days by MTT assay; format: toxicity, cell-based
# NCI-H1299 [20] = test: Antiproliferative activity against human NCI-H1299 cells assessed as inhibition of cell growth pretreated with GSH followed by compound addition and incubated for 3 to 5 days by MTT assay; format: functional, cell-based
# NCI-H3122 [21] = test: Induction of apoptosis in human NCI-H3122 cells assessed as necrotic cells at 2.5 uM incubated for 48 hrs by Annexin V-FITC/propidium iodide staining based flow cytometric analysis (reference value: 3.53%); format: functional
# NCI-H2228 [22] = test: Antiproliferative activity against human NCI-H2228 cells assessed as inhibition of cell growth pretreated with GSH followed by compound addition and incubated for 3 to 5 days by MTT assay; format: functional, cell-based
# NCI-H3122 [23] = test: Cell cycle arrest in human NCI-H3122 cells assessed as accumulation of cells at G0/G1 phase at 0.312 uM incubated for 24 hrs by propidium iodide staining based flow cytometric analysis (reference value: 45.91%); format: functional
# NCI-H3122 [24] = test: Induction of apoptosis in human NCI-H3122 cells assessed as viable cells at 1.25 uM incubated for 48 hrs by Annexin V-FITC/propidium iodide staining based flow cytometric analysis (reference value: 94.19%); format: functional; settings: read-out: Activity
# NCI-H3122 [25] = test: Cell cycle arrest in human NCI-H3122 cells assessed as accumulation of cells at S phase at 0.625 uM incubated for 24 hrs by propidium iodide staining based flow cytometric analysis (reference value: 34.86%); format: functional
# NCI-H3122 [26] = test: Cell cycle arrest in human NCI-H3122 cells assessed as accumulation of cells at S phase at 1.25 uM incubated for 24 hrs by propidium iodide staining based flow cytometric analysis (reference value: 34.86%); format: functional
# [27] = target: Protein cereblon/Cyclin-dependent kinase 6 (Homo sapiens) (UniProt Q00534+Q96SW2); test: PROTAC activity at CRBN/CDK6 in human NCI-H3122 cells assessed as reduction in CDK6 protein level at 1 uM incubated for 24 hrs by Western blot analysis; format: cell-based
# Protein cereblon/Cyclin-dependent kinase 6 (Homo sapiens), sequence (Q00534 whole entry, looked up): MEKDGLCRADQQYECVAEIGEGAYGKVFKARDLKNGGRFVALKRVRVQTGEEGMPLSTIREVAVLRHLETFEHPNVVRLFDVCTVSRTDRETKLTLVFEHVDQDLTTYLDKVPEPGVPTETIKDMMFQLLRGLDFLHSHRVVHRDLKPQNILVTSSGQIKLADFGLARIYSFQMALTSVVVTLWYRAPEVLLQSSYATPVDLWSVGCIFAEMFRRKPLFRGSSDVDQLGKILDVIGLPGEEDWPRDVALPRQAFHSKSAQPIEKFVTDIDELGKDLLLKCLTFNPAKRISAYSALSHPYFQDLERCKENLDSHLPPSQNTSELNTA
# Protein cereblon/Cyclin-dependent kinase 6 (Homo sapiens), sequence (Q96SW2 whole entry, looked up): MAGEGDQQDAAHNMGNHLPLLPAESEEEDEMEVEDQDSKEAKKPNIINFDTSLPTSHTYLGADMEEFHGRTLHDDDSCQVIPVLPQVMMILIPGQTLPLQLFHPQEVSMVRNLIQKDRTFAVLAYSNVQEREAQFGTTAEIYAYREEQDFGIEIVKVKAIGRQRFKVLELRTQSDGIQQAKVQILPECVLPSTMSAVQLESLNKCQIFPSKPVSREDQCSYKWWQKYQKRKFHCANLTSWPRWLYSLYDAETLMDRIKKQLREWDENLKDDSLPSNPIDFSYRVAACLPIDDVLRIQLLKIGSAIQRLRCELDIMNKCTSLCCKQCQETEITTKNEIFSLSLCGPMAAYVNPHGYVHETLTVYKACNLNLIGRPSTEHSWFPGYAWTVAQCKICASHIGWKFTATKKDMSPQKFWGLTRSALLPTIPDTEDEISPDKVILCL
# NCI-H3122 [28] = test: Induction of apoptosis in human NCI-H3122 cells assessed as late apoptotic cells at 0.312 uM incubated for 48 hrs by Annexin V-FITC/propidium iodide staining based flow cytometric analysis (reference value: 1.73%); format: functional
# NCI-H3122 [29] = test: Cell cycle arrest in human NCI-H3122 cells assessed as accumulation of cells at S phase at 0.312 uM incubated for 24 hrs by propidium iodide staining based flow cytometric analysis (reference value: 34.86%); format: functional
# NCI-H3122 [30] = test: Induction of apoptosis in human NCI-H3122 cells assessed as early apoptotic cells at 0.312 uM incubated for 48 hrs by Annexin V-FITC/propidium iodide staining based flow cytometric analysis (reference value: 0.50%); format: functional
# NCI-H3122 [31] = test: Induction of apoptosis in human NCI-H3122 cells assessed as late apoptotic cells at 0.625 uM incubated for 48 hrs by Annexin V-FITC/propidium iodide staining based flow cytometric analysis (reference value: 1.73%); format: functional
# NCI-H2228 [32] = test: Antiproliferative activity against human NCI-H2228 cells assessed as inhibition of cell growth incubated for 3 to 5 days by MTT assay; format: functional, cell-based
# NCI-H3122 [33] = test: Induction of apoptosis in human NCI-H3122 cells assessed as total apoptotic cells at 2.5 uM incubated for 48 hrs by Annexin V-FITC/propidium iodide staining based flow cytometric analysis relative to control; format: functional
# NCI-H3122 [34] = test: Induction of apoptosis in human NCI-H3122 cells assessed as viable cells at 2.5 uM incubated for 48 hrs by Annexin V-FITC/propidium iodide staining based flow cytometric analysis (reference value: 94.19%); format: functional; settings: read-out: Activity
# NCI-H3122 [35] = test: Induction of apoptosis in human NCI-H3122 cells assessed as viable cells at 0.312 uM incubated for 48 hrs by Annexin V-FITC/propidium iodide staining based flow cytometric analysis (reference value: 94.19%); format: functional; settings: read-out: Activity
# NCI-H3122 [36] = test: Induction of apoptosis in human NCI-H3122 cells assessed as early apoptotic cells at 0.625 uM incubated for 48 hrs by Annexin V-FITC/propidium iodide staining based flow cytometric analysis (reference value: 0.50%); format: functional
# NCI-H3122 [37] = test: Cell cycle arrest in human NCI-H3122 cells assessed as accumulation of cells at G0/G1 phase at 1.25 uM incubated for 24 hrs by propidium iodide staining based flow cytometric analysis (reference value: 45.91%); format: functional
# NCI-H3122 [38] = test: Cell cycle arrest in human NCI-H3122 cells assessed as accumulation of cells at G0/G1 phase at 2.5 uM incubated for 24 hrs by propidium iodide staining based flow cytometric analysis (reference value: 45.91%); format: functional
structure (smiles),measurement,setting,value
Cc1cc(Nc2ncc(Cl)c(Nc3ccccc3S(=O)(=O)C(C)C)n2)c(OC(C)C)cc1C1CCNCC1 [CERITINIB],Activity,NCI-H3122 [1],4.45%
same,Activity,NCI-H3122 [2],27.27%
same,IC50,[3],3.51 µM
same,Activity,NCI-H3122 [4],33.92%
same,Activity,NCI-H3122 [5],3.86%
same,IC50,NCI-H3122 [6],60 nM
same,Activity,NCI-H3122 [7],24.08%
same,Activity,NCI-H3122 [8],4.19%
same,Activity,NCI-H3122 [9],1.99%
same,IC50,NCI-H1299 [10],1740 nM
same,Activity,NCI-H3122 [11],57.79%
same,Activity,NCI-H3122 [12],28.18%
same,Activity,NCI-H3122 [13],6.24%
same,IC50,NCI-H3122 [14],60 nM
same,Activity,NCI-H3122 [15],4.19%
same,Activity,NCI-H3122 [16],14.93%
same,viability at 0.625 µM,NCI-H3122 [17],88.1%
same,Activity,NCI-H3122 [18],6.94%
same,IC50,[19],1030 nM
same,IC50,NCI-H1299 [20],1620 nM
same,Activity,NCI-H3122 [21],1.93%
same,IC50,NCI-H2228 [22],590 nM
same,Activity,NCI-H3122 [23],52.82%
same,viability at 1.25 µM,NCI-H3122 [24],87.3%
same,Activity,NCI-H3122 [25],14.15%
same,Activity,NCI-H3122 [26],15.21%
same,Activity,[27],inactive
same,Activity,NCI-H3122 [28],3.61%
same,Activity,NCI-H3122 [29],12.62%
same,Activity,NCI-H3122 [30],0.91%
same,Activity,NCI-H3122 [31],5.87%
same,IC50,NCI-H2228 [32],580 nM
same,Activity,NCI-H3122 [33],10.8%
same,viability at 2.5 µM,NCI-H3122 [34],87.4%
same,viability at 0.312 µM,NCI-H3122 [35],91.3%
same,Activity,NCI-H3122 [36],1.88%
same,Activity,NCI-H3122 [37],55.92%
same,Activity,NCI-H3122 [38],60.69%
